Experimental data published in US8710018B2, “Methods and compositions for inhibiting progression to chronic cardiac failure” (priority 2008, dated 2014).

Experiments:
myocardial ATP levels [1] = conditions: rats given a toxic dose of isoproterenol and constriction of the abdominal aorta; cited from earlier work
[2] = test system: patients with chronic coronary artery disease and CHF; conditions: 3 weeks of oral D-ribose, 15 patients with existing CHF, cited from earlier work
myocardial ATP levels [3] = conditions: cited from earlier work
[4] = test system: rat myocardial infarction model (left anterior descending (LAD) artery ligation); assay: Rat myocardial infarction model (LAD artery ligation), echocardiographic function of the remote myocardium; format: in vivo
Excerpt: Although believed to be applicable to several different precipitating causes of CHF, the present inventor initially chose a myocardial infarction model because it would allow the effects of the infarct on the normal remaining myocardium to be studied without confounding factors, particularly the presence of disease in the tissues studied.
An important consequence of an MI is that the uninvolved, often normal, remote myocardium (RM) must assume the entire workload of the ventricle. […] The subcellular events which control and set in motion, the progression to CHF were heretofore unknown. The present inventor hypothesized that the progression begins when the remaining normal myocardium (RM) must assume the entire cardiac load, in effect a large increase for the RM, producing an unfavorable myocardial energy supply/demand ratio which leads to depressed myocardial energy levels. Moreover, because of the continuous nature of the stress imposed, there is essentially no opportunity to recover. As a result, the continued breakdown of AMP with further erosion of ATP levels occurs. Studies to understand this progression in a myocardial infarction (MI) model were undertaken. The hypothesis that a fall in RM energy levels, including myocardial ATP, leads to decreased function was tested by infusing ribose in a rat MI model. A rat myocardial infarction model involving (left anterior descending (LAD) artery ligation) was utilized. In this model the RM must produce the entire cardiac output and left ventricular (LV) dysfunction develops as depicted in FIG. 2 and in the results depicted in FIGS. 3-6.
Methods: Male Lewis rats (250-300 g, n=12) were evaluated by initial baseline 2D guided M-mode echocardiographic analysis using an HP SONOS 1550 system. The echocardiography included short axis views and EF by cubed formula, analyzing the variables of LVdd, LVsd, RM wall thickness, EF and SF. […] Animals underwent ligation of the left anterior descending coronary artery by to produce an anterior wall MI at 1-2 days after pump placement and received continuous venous infusion of 0.9% NaCl solution (at 30 μl/kg/hr) with or without 2.5% D-ribose (N=6 for each group) via the implanted osmotic mini-pump for 14 days. Echocardiographic analysis was performed 2 and 4 weeks post-MI to assess changes in function by ejection indices (ventricular contractility, ejection and shortening fractions), chamber dimensions, and wall thickness. FIG. 3 depicts the M-mode echocardiographic appearance of a rat heart in which post MI CHF has developed.

rodent MI model = conditions: continuous i.v. ribose from before ligation for up to 48 hours, cited from earlier work
[5] = 2 wks post MI, 2.5% D-ribose continuous venous infusion for 14 days
[6] = 4 wks post MI, 2.5% D-ribose continuous venous infusion for 14 days
[7] = Pre-MI (baseline), ribose group
[8] = ribose infusion for 14 days after MI

In the case of `O=C[C@H](O)[C@H](O)[C@H](O)CO` [Ribose, D-ribose], the ATP levels (myocardial ATP levels [1]) is given as “maintained for 24 hours”, the “quality of life by questionnaire” value ([2]; P< or =0.01) is given as 467±128 and the E wave deceleration ([2]; P=0.002) is given as 196±42. For the same compound, the left atrial dimension ([2]; P=0.02) was 47 ± 18 mL, the “speeding of ATP recovery” value (myocardial ATP levels [3]; acute stress models of recovery (i.e. global ischemia), ribose bypasses the G6PDH step) was “at least 10 fold” and the “return of myocardial ATP levels and function” value (myocardial ATP levels [3]; global ischemia and reperfusion model, ribose infusion) was “greatly enhance return”. For the same compound, the “Ejection fraction (EF)” value [4, 5] was 50.5 ± 5.9 %, the LV diastolic diameter [4, 5] was 0.72 ± 0.08 cm and the LV systolic diameter [4, 5] was 0.47 ± 0.22 cm. For the same compound, the “Posterior wall diastolic thickness” value [4, 5] was 0.18 ± 0.12 cm, the “Shortening fraction (SF)” value [4, 5] was 19.8 ± 4.4% and the “Ejection fraction (EF)” value [4, 6] was 49.1 ± 9.4 %. The LV diastolic diameter [4, 6] was 0.76 ± 0.07 cm, the LV systolic diameter [4, 6] was 0.64 ± 0.09 cm and the “Posterior wall diastolic thickness” value [4, 6] was 0.13 ± 0.03 cm. For the same compound, the Septal diastolic thickness [4, 6] was 0.12 ± 0.02 cm, the “Shortening fraction (SF)” value [4, 6] was 19.9 ± 6.1 % and the “Ejection fraction (EF)” value [4, 7] was 76.4 ± 5.9%. For the same compound, the LV systolic diameter [4, 7] was 0.39 ± 0.06 cm, the “Posterior wall diastolic thickness” value [4, 7] was 0.13 ± 0.02 cm and the Septal diastolic thickness [4, 7] was 0.13 ± 0.02 cm. For the same compound, the “Shortening fraction (SF)” value [4, 7] was 38.6 ± 5.3%, the LV diastolic diameter ([4]; Pre-MI (baseline), ribose group, 2.5% D-ribose continuous venous infusion 30 μl/kg/hr for 14 days) was 0.64 ± 0.04 cm and the “contractility (EF, SF) compared to the untreated animals” value [4, 8] was “better preserved”. For the same compound, the ventricular dilation [4, 8] was “significantly reduced”, the “wall thickness compared to the untreated animals” value [4, 8] was “increased” and the “post-MI rise in LV end-diastolic pressure” value (rodent MI model) was “reduced”. For the same compound, the “fall of ATP in the nonischemic myocardium” value (rodent MI model; first (24 hr) time point) was “reduce the fall of ATP”.
